The target in experiment [1] is T1, HIF-1α (Homo sapiens, UniProt Q16665).
T1 construct: endogenous in cells; host or cells: ARPE-19 (ATCC CRL-2302)
In words: Analysis of HIF-1α protein expression (Western blot) in ARPE-19 cells under mixed hypoxic condition. It counts as cell-based. Particulars: values marked * in the table, mixed hypoxic condition (1% oxygen + CoCl2) for 24 hours, concentration range at which HIF-1α expression is reduced by 50% vs untreated control, read-out: IC50 HIF-1α, Hypoxia(24h). The essentials: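 ARPE-19 cells were pretreated 16 h or 2 h with compound (0.1 nM–10 µM, serum-free DMEM/F12), then held 1 h or 24 h in mixed hypoxia (1% O2 plus CoCl2). HIF-1α was quantified by Western blot against β-actin; the concentration range giving ≥50% reduction vs untreated control was reported.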

In experiment [2] the test system is VEGF. In words: Evaluation of VEGF protein secretion level (Human VEGF ELISA) in ARPE-19 cell medium under hypoxic conditions. Particulars: ARPE-19 cells; pretreated 2 hours, 24 hours hypoxic conditions; secreted VEGF in medium supernatant by ELISA; concentration range reducing VEGF by 50% vs untreated control; read-out: IC50 VEGF. It counts as cell-based. The essentials:
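Human ARPE-19 cells were pretreated 2 h with compound (0.1 nM–10 µM, in DMEM/F12 with 1% FBS), then held 24 h in hypoxia (1% O2, 5% CO2). Secreted VEGF in the supernatant was quantified by ELISA (A450). The value is the concentration range giving ≥50% VEGF reduction versus untreated control.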
For orientation: ELISA stands for enzyme-linked immunosorbent assay.

The values that follow come from patent EP4567035A1, “NOVEL COMPOUND AS HYPOXIA-INDUCIBLE FACTOR 1(HIF-1) INHIBITOR OR VASCULAR ENDOTHELIAL GROWTH FACTOR (VEGF) INHIBITOR, AND PHARMACEUTICAL COMPOSITION COMPRISING SAME” (Nextgen Bioscience Co., Ltd., priority 2022, dated 2024).

pIC50: −log10 of the molar value.

T1 sequence (Q16665 whole entry): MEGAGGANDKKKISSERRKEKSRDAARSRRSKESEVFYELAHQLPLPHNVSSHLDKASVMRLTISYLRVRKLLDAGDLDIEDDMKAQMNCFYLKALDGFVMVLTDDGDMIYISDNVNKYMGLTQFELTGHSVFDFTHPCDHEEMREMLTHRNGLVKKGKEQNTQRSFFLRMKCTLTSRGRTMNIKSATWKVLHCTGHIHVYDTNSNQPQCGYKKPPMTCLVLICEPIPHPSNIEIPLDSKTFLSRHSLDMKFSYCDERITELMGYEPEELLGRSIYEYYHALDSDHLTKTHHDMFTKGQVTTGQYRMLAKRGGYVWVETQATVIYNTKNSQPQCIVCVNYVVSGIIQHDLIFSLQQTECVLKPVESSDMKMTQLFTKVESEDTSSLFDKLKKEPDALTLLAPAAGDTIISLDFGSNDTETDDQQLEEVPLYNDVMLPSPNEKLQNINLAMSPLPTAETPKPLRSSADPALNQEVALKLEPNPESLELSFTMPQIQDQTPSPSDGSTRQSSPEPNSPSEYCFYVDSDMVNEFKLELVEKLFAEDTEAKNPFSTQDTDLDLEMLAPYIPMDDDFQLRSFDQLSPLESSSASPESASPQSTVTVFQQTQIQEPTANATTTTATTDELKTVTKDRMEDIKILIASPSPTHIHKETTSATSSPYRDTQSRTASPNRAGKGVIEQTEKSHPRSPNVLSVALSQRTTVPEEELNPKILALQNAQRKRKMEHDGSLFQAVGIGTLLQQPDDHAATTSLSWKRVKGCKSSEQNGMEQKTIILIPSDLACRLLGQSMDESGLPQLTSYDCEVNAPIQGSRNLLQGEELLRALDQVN

What is called pIC50 is −log10 of the IC50, conventionally taken in molar units. For the molecule `O=C(NCc1cc(F)cc(-c2cnn(-c3ccc(F)cc3)c2)c1)c1ncnc2nc(C3CC4(C3)CC(F)(F)C4)[nH]c12` [Example 98, 8-(6,6-Difluorospiro[3.3]heptan-2-yl)-N-(3-fluoro-5-(1-(4-fluorophenyl)-1H-pyrazol-4-yl)benzyl)-7H-purine-6-carboxamide], the DC50 in experiment [1] was in the range of 1000 to 10000 nM. For the same molecule, the pIC50 in experiment [2] was under 5.00.
The matching figures for `O=C(NCc1cc(F)cc(-c2cnn(-c3ccc(F)cc3)c2)c1)c1ncnc2nc(C34CC(C3)C4)[nH]c12` [Example 99, 8-(Bicyclo[1.1.1]pentan-1-yl)-N-(3-fluoro-5-(1-(4-fluorophenyl)-1H-pyrazol-4-yl)benzyl)-7H-purine-6-carboxamide]: 1000 to 10000 nM and under 5.00.
For the molecule `O=C(NCc1cc(F)cc(-c2cnn(-c3ccc(F)cc3)c2)c1)c1ncnc2nc(C3CC4(CCC4)C3)[nH]c12` [Example 100, N-(3-fluoro-5-(1-(4-fluorophenyl)-1H-pyrazol-4-yl)benzyl)-8-(spiro[3.3]heptan-2-yl)-7H-purine-6-carboxamide], the DC50 in experiment [1] fell in the range of 1000 to 10000 nM. In addition, the pIC50 in experiment [2] was 5.00 to 6.00.
The matching figures for `O=C(NCc1cc(F)cc(-c2cnn(-c3ccc(F)cc3)c2)c1)c1ncnc2nc(C34CC(F)(C3)C4)[nH]c12` [Example 101, N-(3-fluoro-5-(1-(4-fluorophenyl)-1H-pyrazol-4-yl)benzyl)-8-(3-fluorobicyclo[1.1.1]pentan-1-yl)-7H-purine-6-carboxamide]: 100 to 1000 nM and 5.00 to 6.00.
The matching figures for `O=C(NCc1cc(Cl)cc(-c2cnn(-c3ccc(F)cc3)c2)c1)c1ncnc2nc(C3CCCC3)[nH]c12` [Example 104, N-(3-chloro-5-(1-(4-fluorophenyl)-1H-pyrazol-4-yl)benzyl)-8-cyclopentyl-7H-purine-6-carboxamide]: under 100 nM and 6.00 to 7.00.
The like results for `O=C(Nc1cc(F)cc(-c2cnn(-c3ccc(F)cc3)c2)c1)c1ncnc2nc(C3CCCC3)[nH]c12` [Example 105, 8-Cyclopentyl-N-(3-fluoro-5-(1-(4-fluorophenyl)-1H-pyrazol-4-yl)phenyl)-7H-purine-6-carboxamide] were, in that order, over 10000 nM and under 5.00.
For the molecule `O=C(NCc1cc(F)cc(-c2cnn(-c3ccc(F)cc3)c2)c1)c1ncnc2nc(C3CC(C(=O)O)C3)[nH]c12` (stereo not shown) [Example 106, 3-(6-((3-Fluoro-5-(1-(4-fluorophenyl)-1H-pyrazol-4-yl)benzyl)carbamoyl)-7H-purin-8-yl)cyclobutanecarboxylic acid], the DC50 in experiment [1] is over 10000 nM. The pIC50 in experiment [2] is under 5.00.
In the case of `O=C(NCc1cc(F)cc(-c2cnn(-c3ccc(F)cc3)c2)c1)c1ccnc2nc(C3CCCC3)[nH]c12` [Example 107, 2-Cyclopentyl-N-(3-fluoro-5-(1-(4-fluorophenyl)-1H-pyrazol-4-yl)benzyl)-1H-imidazo [4,5-b] pyridine-7-carboxamide], the DC50 in experiment [1] is over 10000 nM. In addition, the pIC50 in experiment [2] is under 5.00.
Turning to `O=C(NCc1ccc(-c2cnn(-c3ccc(F)cc3)c2)cc1)c1ncnc2nc(C3CCCC3)[nH]c12` [Example 108, 8-Cyclopentyl-N-(4-(1-(4-fluorophenyl)-1H-pyrazol-4-yl)benzyl)-7H-purine-6-carboxamide], the DC50 in experiment [1] was over 10000 nM. Besides, in experiment [2], the pIC50 is under 5.00.
Consider `O=C(NCc1ccc(-c2cnn(-c3ccc(F)cc3)c2)c(F)c1)c1ncnc2nc(C3CCCC3)[nH]c12` [Example 109, 8-Cyclopentyl-N-(3-fluoro-4-(1-(4-fluorophenyl)-1H-pyrazol-4-yl)benzyl)-7H-purine-6-carboxamide], for which, in experiment [1], the DC50 is over 10000 nM. In addition, the negative logarithm of the IC50 (pIC50) in experiment [2] is under 5.00.
As to `O=C(NCc1cc(F)cc(-c2cnn(-c3ccc(F)cc3)c2)c1)c1ncnc2nc(C3CC4(CC4)C3)[nH]c12` [Example 111, N-(3-fluoro-5-(1-(4-fluorophenyl)-1H-pyrazol-4-yl)benzyl)-8-(spiro[2.3]hexan-5-yl)-7H-purine-6-carboxamide], in experiment [1], the DC50 was under 100 nM. The pIC50 in experiment [2] is 6.00 to 7.00.
The like results for `CN(Cc1cc(F)cc(-c2cnn(-c3ccc(F)cc3)c2)c1)C(=O)c1ncnc2nc(C3CCCC3)[nH]c12` [Example 112, 8-Cyclopentyl-N-(3-fluoro-5-(1-(4-fluorophenyl)-1H-pyrazol-4-yl)benzyl)-N-methyl-7H-purine-6-carboxamide] were, in that order, over 10000 nM and under 5.00.
Regarding `O=C(NCc1cc(F)cc(-c2cnn(-c3ccc(F)cc3)c2)c1)c1ncnc2nc(C3CC4CC4C3)[nH]c12` (stereo not shown) [Example 113, 8-(Bicyclo[3.1.0]hexan-3-yl)-N-(3-fluoro-5-(1-(4-fluorophenyl)-1H-pyrazol-4-yl)benzyl)-7H-purine-6-carboxamide], in experiment [1], the DC50 was under 100 nM. Also, the pIC50 in experiment [2] is 6.00 to 7.00.
As to `O=C(NCc1cc(F)cc(-c2cnn(-c3ccc(F)cc3)c2)c1)c1ncnc2nc(C3CC4CCC3C4)[nH]c12` (stereo not shown) [Example 114, 8-(Bicyclo[2.2.1]heptan-2-yl)-N-(3-fluoro-5-(1-(4-fluorophenyl)-1H-pyrazol-4-yl)benzyl)-7H-purine-6-carboxamide], the DC50 in experiment [1] was 100 to 1000 nM. For the same molecule, in experiment [2], the pIC50 is 6.00 to 7.00.
With `O=C(NCc1cc(F)cc(-c2cnn(-c3ccc(F)cc3)c2)c1)c1ncnc2nc(C34CCC(C3)C4)[nH]c12` [Example 115, 8-(Bicyclo[2.1.1]hexan-1-yl)-N-(3-fluoro-5-(1-(4-fluorophenyl)-1H-pyrazol-4-yl)benzyl)-7H-purine-6-carboxamide], in experiment [1], the DC50 lay within 100 to 1000 nM. Besides, the negative-log IC50 (pIC50) in experiment [2] is 6.00 to 7.00.
On to `O=C(NCc1cc(F)cc(-n2cc(-c3ccc(F)cc3)nn2)c1)c1ncnc2nc(C3CCCC3)[nH]c12` [Example 116, 8-Cyclopentyl-N-(3-fluoro-5-(4-(4-fluorophenyl)-1H-1,2,3-triazol-1-yl)benzyl)-7H-purine-6-carboxamide], for which, in experiment [1], the DC50 was in the range of 100 to 1000 nM. Besides, the pIC50 in experiment [2] is under 5.00.
`O=C(NCc1cc(F)cc(-c2cnn(-c3ccsc3)c2)c1)c1ncnc2nc(C3CCCC3)[nH]c12` [Example 117, 8-Cyclopentyl-N-(3-fluoro-5-(1-(thiophen-3-yl)-1H-pyrazol-4-yl)benzyl)-7H-purine-6-carboxamide]: the DC50 in experiment [1] is under 100 nM. Besides, the pIC50 in experiment [2] was 6.00 to 7.00.
The like results for `Cn1ccc(Nc2cc(F)cc(CNC(=O)c3ncnc4nc(C5CCCC5)[nH]c34)c2)n1` [Example 118, 8-Cyclopentyl-N-(3-fluoro-5-((1-methyl-1H-pyrazol-3-yl)amino)benzyl)-7H-purine-6-carboxamide] were, in that order, under 100 nM and 6.00 to 7.00.
The matching figures for `O=C(NCc1cc(F)cc(-c2cn(-c3ccc(F)cc3)nn2)c1)c1ncnc2nc(C3CCCC3)[nH]c12` [Example 119, 8-Cyclopentyl-N-(3-fluoro-5-(1-(4-fluorophenyl)-1H-1,2,3-triazol-4-yl)benzyl)-7H-purine-6-carboxamide]: 100 to 1000 nM and under 5.00.
Regarding `O=C(NCc1cc(F)cc(Nc2cc[nH]n2)c1)c1ncnc2nc(C3CCCC3)[nH]c12` [Example 120, N-(3-((1H-pyrazol-3-yl)amino)-5-fluorobenzyl)-8-cyclopentyl-7H-purine-6-carboxamide], the DC50 in experiment [1] is 100 to 1000 nM. For the same molecule, the pIC50 in experiment [2] is under 5.00.
